Data published in patent US9181253B2 (The United States of America, as represented by the …, priority 2008, dated 2015).
Like-named read-outs stand apart in the source and are kept apart here. Marks after values point to notes of the source that are not given here.

How the values were obtained:
[1] = system: s.c. metrazol seizures in mice; experiment: s.c. metrazol (scMET) seizure test; assay type: in vivo; settings: i.p.
Text: In vivo anticonvulsant activity was established by both electrical and chemoconvulsant seizure tests which have been described previously. White, H. S., et al., Ital. J. Neurol. […] White, H. S. et al., Antiepileptic Drugs ([…].; Meldrum, B. S. ed), 1995, pp 99-110, Raven Press, New York.; and Smith, M., et al., Neurotherapeutics 2007, 4, 12-17. The electrical tests used were the maximal electroshock (MES) seizure test, the 6 Hz minimal clonic seizure test, and the corneal kindled mouse test. The chemical test was the s.c. metrazol seizure tests. Time of peak effect (TPE) is deduced from data generated in initial qualitative test procedures. […] The time point at which the compound produces the most activity/toxicity was chosen as TPE.

hA3AR = hA3AR (Homo sapiens (Human), UniProt P0DMS8); settings: values from literature references; read-out: Affinity Ki, nM A3; cited from earlier work
[2] = system: seizures induced by 6 Hz corneal stimulation in mice; experiment: 6 Hz minimal clonic seizure test; assay type: in vivo
Description: (§1) For the MES and 6 Hz tests, a drop of anesthetic/electrolyte solution (0.5% tetracaine hydrochloride in 0.9% saline) was applied to the eyes of each animal prior to placement of the corneal electrodes. The electrical stimulus in the MES test was 50 mA, 60 Hz, for mice. Abolition of the hindleg tonic extensor component of the seizure was used as the endpoint.
The ability of the test substance to prevent seizures induced by 6 Hz corneal stimulation (32 mA, 3 sec duration) in mice was evaluated at a convulsive current that evokes a seizure in 97% of the population tested (CC97). Six Hz seizures are characterized by a minimal clonic phase that is followed by stereotyped, automatistic behaviors described originally as being similar to the aura of human patients with partial seizures. Toman, J. E. et al., Tex. Rep.
Animals not displaying this behavior were considered protected.

mice = experiment: Minimal behavioral toxicity test, rotorod procedure; settings: i.p.
hA2AAR [3] = target: T1, hA2AAR (Homo sapiens (Human), UniProt P29274); settings: values from literature references; read-out: Affinity Ki, nM A2A; cited from earlier work
MES seizures in mice = experiment: Maximal electroshock (MES) seizure test; assay type: in vivo; settings: i.p.
Description: The electrical tests used were the maximal electroshock (MES) seizure test, the 6 Hz minimal clonic seizure test, and the corneal kindled mouse test. The chemical test was the s.c. metrazol seizure tests. Time of peak effect (TPE) is deduced from data generated in initial qualitative test procedures. Five groups of 4 animals each are administered the test compound, and each group is tested at one of five different time intervals: ¼, ½, 1, 2 and 4 h. The time point at which the compound produces the most activity/toxicity was chosen as TPE.
as §1

hA1AR [4] = target: T2, hA1AR (Homo sapiens (Human), UniProt P30542); settings: values from literature references; read-out: Affinity Ki, nM A1; cited from earlier work
corneal kindled mice = experiment: Corneal-kindled mouse model of partial seizures; assay type: in vivo; settings: qualitative test, 3 mg/kg, 1 hour post injection, n=4
Text: Mice were kindled according to the methods described by […] and […]; […] Louis, Mo.) was applied to the cornea to ensure local anesthesia and good electrical conductivity. Stimulations were at least four hours apart. […] See Racine, R., Electroencephalogr. Clin. Neurophysiol. 1972, pp. 281-294. At the completion of the kindling acquisition, mice were permitted at least a 3-day stimulation-free period prior to any drug testing. Mice were stimulated once the day before drug testing to ensure they had achieved and maintained a kindled state. On the day of the drug study, corneal kindled mice (n=4, or 8) received a single i.p. dose of test compound. Mice were challenged with the corneal kindling stimulus of 3 mA for 3 seconds at TPE after test compound administration. Mice were scored as protected (seizure score of ≦3) or not protected, (seizure score ≧4) based on the Racine scoring.

hA1AR [5] = target: T2, hA1AR; experiment: A1AR functional assay, inhibition of forskolin-stimulated cyclic AMP production in AR-transfected CHO cells; assay type: cell-based; settings: FIG. 12, compared to full agonist NECA
in vivo = settings: mouse, ip
hA1AR [6] = target: T2, hA1AR; experiment: Radioligand membrane binding at hA1AR (Example 6)
Description: (§2) In addition, 800 μg/mL Geneticin and 500 μg/mL hygromycin were added to the A2A media and to the A1 and A3 media, respectively. […] The concentration of protein was determined using a BCA Protein Assay Kit from Pierce Biotechnology (Rockford, Ill.).
(§3) Radioligand binding assays at A1, A2A, and A3ARs were performed according to the procedures described previously.
(§4) All of the filters were washed 3 times with Tris-HCl, pH 7.5. […] Filters for A3AR binding were counted using a PerkinElmer Cobra II γ-counter.
(§5) Binding and functional parameters were calculated using Prism 5.0 software (GraphPAD, San Diego, Calif., USA). IC50 values obtained from competition curves were converted to Ki values using the Cheng-Prusoff equation. Data were expressed as mean±standard error.

hA2AAR [7] = target: T1, hA2AAR; experiment: Radioligand membrane binding at hA2AAR (Example 6); settings: HEK293 cells expressing hA2AAR; [3H]CGS21680; n = 3-5; read-out: Affinity Ki, nM A2A
Description: as §2, §3, §4, §5

human A3 receptor = human A3 receptor (Homo sapiens (Human), UniProt P0DMS8); experiment: Binding assay at the human A3 receptor (Example 2); settings: CHO cells expressing human A3AR; radioligand [125I]I-AB-MECA; n = 3-5; read-out: Affinity (Ki, nM) A3
human A3AR [8] = target: T3, human A3AR (Homo sapiens (Human), UniProt P0DMS8); experiment: Cyclic AMP accumulation / adenylate cyclase assay, CHO cells expressing hA3AR; assay type: cell-based
human A3AR [9] = target: T3, human A3AR; experiment: [35S]GTPγS binding assay, membranes of CHO cells expressing human A3AR; assay type: biochemical

T2 sequence (P30542 whole entry): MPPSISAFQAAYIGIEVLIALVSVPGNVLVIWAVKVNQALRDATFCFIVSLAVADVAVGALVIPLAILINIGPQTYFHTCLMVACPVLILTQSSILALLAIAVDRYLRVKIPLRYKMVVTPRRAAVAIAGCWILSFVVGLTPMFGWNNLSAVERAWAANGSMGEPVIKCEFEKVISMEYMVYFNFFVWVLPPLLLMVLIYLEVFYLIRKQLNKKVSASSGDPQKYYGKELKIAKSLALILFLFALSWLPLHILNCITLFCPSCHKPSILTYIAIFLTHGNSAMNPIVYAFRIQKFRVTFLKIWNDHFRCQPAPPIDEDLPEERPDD
T3 sequence (P0DMS8 whole entry): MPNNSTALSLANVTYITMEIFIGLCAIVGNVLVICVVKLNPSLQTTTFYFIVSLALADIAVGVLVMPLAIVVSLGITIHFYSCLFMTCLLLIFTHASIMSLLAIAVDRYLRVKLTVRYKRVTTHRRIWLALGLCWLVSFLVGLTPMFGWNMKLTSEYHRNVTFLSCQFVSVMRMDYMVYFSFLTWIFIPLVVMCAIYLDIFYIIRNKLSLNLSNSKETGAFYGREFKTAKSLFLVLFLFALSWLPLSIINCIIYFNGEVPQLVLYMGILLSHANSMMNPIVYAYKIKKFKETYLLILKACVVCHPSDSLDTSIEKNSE
T1 sequence (P29274 whole entry): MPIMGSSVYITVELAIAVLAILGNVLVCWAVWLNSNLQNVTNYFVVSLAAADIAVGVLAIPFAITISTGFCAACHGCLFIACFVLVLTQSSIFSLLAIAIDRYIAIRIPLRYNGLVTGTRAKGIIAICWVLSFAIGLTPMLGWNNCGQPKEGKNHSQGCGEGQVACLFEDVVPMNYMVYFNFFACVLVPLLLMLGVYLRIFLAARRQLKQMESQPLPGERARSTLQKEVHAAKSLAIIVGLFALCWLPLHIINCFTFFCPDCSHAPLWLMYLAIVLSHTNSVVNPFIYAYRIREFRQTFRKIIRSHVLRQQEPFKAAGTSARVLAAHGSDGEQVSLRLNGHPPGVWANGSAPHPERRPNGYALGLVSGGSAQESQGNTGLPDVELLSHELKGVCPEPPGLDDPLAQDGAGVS
Chain of human A3 receptor (P0DMS8 whole entry): as the sequence (P0DMS8 whole entry) above
Chain of hA3AR (P0DMS8 whole entry): as above

NCCNC(=O)Cc1ccc(NC(=O)Cc2ccc(Nc3ncnc4c3ncn4[C@@H]3O[C@H](CO)[C@@H](O)[C@H]3O)cc2)cc1 [Compound 237]
scMET model, number of animals protected from convulsions ([1]; 1 mg/kg): 5 out of 8 | Ki (hA3AR): 12.4 ± 4.1 nM | 6 Hz model ED50 ([2]; mice, i.p., measured at 1 h post injection): 0.03^c mg/kg | Behavioral toxicity TD50 (mice; measured at 4 h post injection): 0.14^d mg/kg | Ki (hA2AAR [3]): 370 ± 100 nM | MES model, number of animals protected from convulsions (MES seizures in mice; 2 mg/kg): 4 out of 8 | Ki (hA1AR [4]): 10.4 ± 3.8 nM

O[C@@H]1[C@H](O)[C@@H]2C[C@@H]2[C@H]1n1cnc2c(NC(C3CC3)C3CC3)nc(Cl)nc21 [Compound 121, (1R,2R,3S,4R,5S)-4-(2-Chloro-6-(dicyclopropylmethylamino)-9H-purin-9-yl)bicyclo[3.1.0]hexane-2,3-diol]
corneal kindled mouse model, animals protected (corneal kindled mice): all animals (n=4) were protected | agonist character at A1 AR, concentration-response curve of inhibition of cyclic AMP production (hA1AR [5]): full agonist | scMET model, number of animals protected from convulsions ([1]; 3 mg/kg): No protection | ED50 ([2]; Mus musculus, ip, mice, i.p., measured at 1 h post injection, read-out: 6 Hz model ED50): 2.74 mg/kg | ED50 in antiseizure models, times less potent compared to 235b ([2]; mouse, in vivo): about 20 times | TD50 (in vivo): > 10 mg/kg | times less potent at the A1AR in in vitro binding compared to 235b (hA1AR [6]): ~40 times | Ki (hA1AR [6]; CHO cells expressing hA1AR, [3H]R-PIA, n = 3-5, read-out: Affinity Ki, nM A1): 47.9 ± 10.5 nM | Behavioral toxicity TD50 (mice): >10 mg/kg | Ki (hA2AAR [7]): 3950 ± 410 nM | MES model, number of animals protected from convulsions (MES seizures in mice; 3 mg/kg): 1 out of 4

O[C@@H]1[C@H](O)[C@@H]2C[C@@H]2[C@H]1n1cnc2c(NCc3cccc(I)c3)nc(Cl)nc21 [Compound 7b, (1′R,2′R,3′S,4′R,5′S)-4′-[2-Chloro-6-(3-iodobenzylamino)purine]-2′,3′-O-dihydroxybicyclo-[3.1.0]hexane]
Ki (human A3 receptor): 1.44 ± 0.6 nM | EC50 (human A3AR [8]; partial agonism, read-out: EC50 at A3AR, cAMP assay): 12 ± 1 nM | Kb (human A3AR [8]; right shifts of response curves in the inhibition of adenylate cyclase by NECA, read-out: KB value, Schild analysis): 8.9 nM | IC50 (human A3AR [9]; read-out: IC50, inhibition of [35S]GTPγS binding stimulated by NECA, stimulation by 1 μM NECA): 29.8 nM | % Efficacy A3 (human A3AR [9]; stimulation measured by [35S]GTPγS binding assay): 1.0 ± 3.2%
